Data: the supplement of paper PMC4862054

System: MFM-223
Test: normalised viability (% of control), CellTiter-Blue; higher = more viable cells (about 100 = DMSO control)
Settings: 10000 nM; incubation time: 72 h
Method in brief: (§1)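 Seeded at 20 µl suspension per well onto compound-loaded 384-well plates, breast cancer cell lines were incubated 72 h. CellTiter-Blue fluorescence at 560/590 nm was then read, with each plate normalised to vehicle (100) and a positive kill control (0). Normalised viability is reported at a single listed concentration of the series.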

SMILES	normalised viability [%]
O=NN(CCCl)C(=O)NC1CCCCC1 [Lomustine]	54.7

Same assay, conditions: 100000 nM; incubation time: 72 h

SMILES	normalised viability [%]
NC(=O)NO [Hydroxyurea]	116

System: SK-BR-3
Test: as above
Settings: 1 nM; incubation time: 72 h
Method in brief: as §1

SMILES	normalised viability [%]
COc1cc2c(Oc3ccc(NC(=O)C4(C(=O)Nc5ccc(F)cc5)CC4)cc3F)ccnc2cc1OCCCN1CCOCC1 [Foretinib]	97.5
O=C(O)CC[C@H]1CC[C@@](c2cc(F)ccc2F)(S(=O)(=O)c2ccc(Cl)cc2)CC1 [MK-0752]	106

Same assay, conditions: 10 nM; incubation time: 72 h

SMILES	normalised viability [%]
Nc1nc(Cl)nc2c1ncn2[C@@H]1O[C@H](CO)[C@@H](O)[C@@H]1F [Clofarabine]	93
CCN(CC)CCOc1ccc(C(=C(Cl)c2ccccc2)c2ccccc2)cc1 [Clomifene]	105
C[C@@H]1C[C@H]2[C@@H]3CCC4=CC(=O)C=C[C@]4(C)[C@@]3(F)[C@@H](O)C[C@]2(C)[C@@]1(O)C(=O)CO [Dexamethasone]	99.2
CC(C)C(=O)Nc1ccc([N+](=O)[O-])c(C(F)(F)F)c1 [Flutamide]	108
O=NN(CCCl)C(=O)NC1CCCCC1 [Lomustine]	97.3

Same assay, conditions: 100 nM; incubation time: 72 h

SMILES	normalised viability [%]
COc1cc2c(Oc3ccc(NC(=O)C4(C(=O)Nc5ccc(F)cc5)CC4)cc3F)ccnc2cc1OCCCN1CCOCC1 [Foretinib]	102
NC(=O)NO [Hydroxyurea]	114
O=C(O)CC[C@H]1CC[C@@](c2cc(F)ccc2F)(S(=O)(=O)c2ccc(Cl)cc2)CC1 [MK-0752]	105

Same assay, conditions: 1000 nM; incubation time: 72 h

SMILES	normalised viability [%]
Nc1nc(Cl)nc2c1ncn2[C@@H]1O[C@H](CO)[C@@H](O)[C@@H]1F [Clofarabine]	41.9
CCN(CC)CCOc1ccc(C(=C(Cl)c2ccccc2)c2ccccc2)cc1 [Clomifene]	105
C[C@@H]1C[C@H]2[C@@H]3CCC4=CC(=O)C=C[C@]4(C)[C@@]3(F)[C@@H](O)C[C@]2(C)[C@@]1(O)C(=O)CO [Dexamethasone]	86.7
CC(C)C(=O)Nc1ccc([N+](=O)[O-])c(C(F)(F)F)c1 [Flutamide]	106
COc1cc2c(Oc3ccc(NC(=O)C4(C(=O)Nc5ccc(F)cc5)CC4)cc3F)ccnc2cc1OCCCN1CCOCC1 [Foretinib]	77.5
O=NN(CCCl)C(=O)NC1CCCCC1 [Lomustine]	125
O=C(O)CC[C@H]1CC[C@@](c2cc(F)ccc2F)(S(=O)(=O)c2ccc(Cl)cc2)CC1 [MK-0752]	111

Same assay, conditions: 10000 nM; incubation time: 72 h

SMILES	normalised viability [%]
Nc1nc(Cl)nc2c1ncn2[C@@H]1O[C@H](CO)[C@@H](O)[C@@H]1F [Clofarabine]	35.6
CCN(CC)CCOc1ccc(C(=C(Cl)c2ccccc2)c2ccccc2)cc1 [Clomifene]	67.2
C[C@@H]1C[C@H]2[C@@H]3CCC4=CC(=O)C=C[C@]4(C)[C@@]3(F)[C@@H](O)C[C@]2(C)[C@@]1(O)C(=O)CO [Dexamethasone]	93
CC(C)C(=O)Nc1ccc([N+](=O)[O-])c(C(F)(F)F)c1 [Flutamide]	106
NC(=O)NO [Hydroxyurea]	117
O=NN(CCCl)C(=O)NC1CCCCC1 [Lomustine]	96

Same assay, conditions: 100000 nM; incubation time: 72 h

SMILES	normalised viability [%]
NC(=O)NO [Hydroxyurea]	114

System: HCC1599
Test: drug sensitivity score (DSS), CellTiter-Glo (DSS (AUC-based score)); higher = stronger drug effect (viability inhibition or cytotoxicity); extreme values may be limits of the assay
Settings: incubation time: 72 h
Method in brief: (§2)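 A drug sensitivity score was derived from the area under each fitted dose-response curve. Breast cancer cells (20 µl suspension) were seeded onto compound in 384-well plates, using 5 concentrations 10-fold apart over a compound-specific 10,000-fold range, and incubated 72 h. Readouts were CellTox Green fluorescence and then CellTiter-Glo luminescence, with every plate normalised to 0.1 % DMSO and a positive kill control.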

SMILES	drug sensitivity score
Nc1nc(Cl)nc2c1ncn2[C@@H]1O[C@H](CO)[C@@H](O)[C@@H]1F [Clofarabine]	9.47
CCN(CC)CCOc1ccc(C(=C(Cl)c2ccccc2)c2ccccc2)cc1 [Clomifene]	6.16
C[C@@H]1C[C@H]2[C@@H]3CCC4=CC(=O)C=C[C@]4(C)[C@@]3(F)[C@@H](O)C[C@]2(C)[C@@]1(O)C(=O)CO [Dexamethasone]	0
CC(C)C(=O)Nc1ccc([N+](=O)[O-])c(C(F)(F)F)c1 [Flutamide]	0
COc1cc2c(Oc3ccc(NC(=O)C4(C(=O)Nc5ccc(F)cc5)CC4)cc3F)ccnc2cc1OCCCN1CCOCC1 [Foretinib]	0
NC(=O)NO [Hydroxyurea]	0
O=NN(CCCl)C(=O)NC1CCCCC1 [Lomustine]	0
O=C(O)CC[C@H]1CC[C@@](c2cc(F)ccc2F)(S(=O)(=O)c2ccc(Cl)cc2)CC1 [MK-0752]	0

System: MDA-MB-231
Test: as above
Settings: incubation time: 72 h
Method in brief: as §2

SMILES	drug sensitivity score
Nc1nc(Cl)nc2c1ncn2[C@@H]1O[C@H](CO)[C@@H](O)[C@@H]1F [Clofarabine]	1.71
CCN(CC)CCOc1ccc(C(=C(Cl)c2ccccc2)c2ccccc2)cc1 [Clomifene]	5.02
C[C@@H]1C[C@H]2[C@@H]3CCC4=CC(=O)C=C[C@]4(C)[C@@]3(F)[C@@H](O)C[C@]2(C)[C@@]1(O)C(=O)CO [Dexamethasone]	0
CC(C)C(=O)Nc1ccc([N+](=O)[O-])c(C(F)(F)F)c1 [Flutamide]	0
COc1cc2c(Oc3ccc(NC(=O)C4(C(=O)Nc5ccc(F)cc5)CC4)cc3F)ccnc2cc1OCCCN1CCOCC1 [Foretinib]	2.4
NC(=O)NO [Hydroxyurea]	0
O=NN(CCCl)C(=O)NC1CCCCC1 [Lomustine]	0
O=C(O)CC[C@H]1CC[C@@](c2cc(F)ccc2F)(S(=O)(=O)c2ccc(Cl)cc2)CC1 [MK-0752]	0

System: MDA-MB-468
Test: as above
Settings: incubation time: 72 h
Method in brief: as §2

SMILES	drug sensitivity score
Nc1nc(Cl)nc2c1ncn2[C@@H]1O[C@H](CO)[C@@H](O)[C@@H]1F [Clofarabine]	11.7
CCN(CC)CCOc1ccc(C(=C(Cl)c2ccccc2)c2ccccc2)cc1 [Clomifene]	0
C[C@@H]1C[C@H]2[C@@H]3CCC4=CC(=O)C=C[C@]4(C)[C@@]3(F)[C@@H](O)C[C@]2(C)[C@@]1(O)C(=O)CO [Dexamethasone]	0
CC(C)C(=O)Nc1ccc([N+](=O)[O-])c(C(F)(F)F)c1 [Flutamide]	0
COc1cc2c(Oc3ccc(NC(=O)C4(C(=O)Nc5ccc(F)cc5)CC4)cc3F)ccnc2cc1OCCCN1CCOCC1 [Foretinib]	1.64
NC(=O)NO [Hydroxyurea]	0
O=NN(CCCl)C(=O)NC1CCCCC1 [Lomustine]	0
O=C(O)CC[C@H]1CC[C@@](c2cc(F)ccc2F)(S(=O)(=O)c2ccc(Cl)cc2)CC1 [MK-0752]	0

System: SK-BR-3
Test: as above
Settings: incubation time: 72 h
Method in brief: as §2

SMILES	drug sensitivity score
Nc1nc(Cl)nc2c1ncn2[C@@H]1O[C@H](CO)[C@@H](O)[C@@H]1F [Clofarabine]	12.7
CCN(CC)CCOc1ccc(C(=C(Cl)c2ccccc2)c2ccccc2)cc1 [Clomifene]	2.09
C[C@@H]1C[C@H]2[C@@H]3CCC4=CC(=O)C=C[C@]4(C)[C@@]3(F)[C@@H](O)C[C@]2(C)[C@@]1(O)C(=O)CO [Dexamethasone]	0
CC(C)C(=O)Nc1ccc([N+](=O)[O-])c(C(F)(F)F)c1 [Flutamide]	0
COc1cc2c(Oc3ccc(NC(=O)C4(C(=O)Nc5ccc(F)cc5)CC4)cc3F)ccnc2cc1OCCCN1CCOCC1 [Foretinib]	0
NC(=O)NO [Hydroxyurea]	0
O=NN(CCCl)C(=O)NC1CCCCC1 [Lomustine]	0
O=C(O)CC[C@H]1CC[C@@](c2cc(F)ccc2F)(S(=O)(=O)c2ccc(Cl)cc2)CC1 [MK-0752]	0
